The record followed here is patent US20230167127A1, “COMPOUNDS AND THEIR USE IN THE TREATMENT OF BACTERIAL INFECTION” (Hoffmann-La Roche Inc., priority 2020, published 2023).

pIC50: −log10 of the molar value.

One experiment relates to Escherichia coli ATCC 25922. Kind of experiment: 50% growth inhibitory concentration (IC50) determination, Iso-Sensitest broth dilution. It is filed as cell-based. The following applies: Escherichia coli, ATCC25922, 16 h, strain Escherichia coli ATCC 25922; 10-point broth dilution, optical density at 600 nm over 16 h; read-out: Escherichia coli growth inhibition IC50. In short, it runs like this:
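Growth was tracked as optical density at 600 nm every 20 minutes for 16 h at 35±2° C. Compounds from DMSO stocks were serially diluted twofold over 10 points (e.g. 50–0.097 μM final) in Iso-Sensitest broth. Inhibition computed in log-phase growth to give IC50.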
On to `Cc1ncc(F)c2c1CC(NCCCC1CN(c3ccc4c(n3)NC(=O)CO4)C(=O)O1)C2` (stereo not shown) [Example 78, 6-[5-[3-[(4-fluoro-1-methyl-6,7-dihydro-5H-cyclopenta[c]pyridin-6-yl)amino]propyl]-2-oxo-1,3-oxazolidin-3-yl]-4H-pyrido[3,2-b][1,4]oxazin-3-one], for which the pIC50 was 6.81.
Same read-out and setting: the figure for `NCCOc1cc2c(c(Cl)n1)CC(CNCCC1CN(c3ccc4c(n3)NC(=O)CO4)C(=O)O1)C2` (stereo not shown) [Example 126, 6-[5-[2-[[3-(2-aminoethoxy)-1-chloro-6,7-dihydro-5H-cyclopenta[c]pyridin-6-yl]methylamino]ethyl]-2-oxo-1,3-oxazolidin-3-yl]-4H-pyrido[3,2-b][1,4]oxazin-3-one] is 6.59; for `N#Cc1c(OCC2(N)CC2)ncc2c1CC(CNCCC1CN(c3ccc4c(n3)NC(=O)CO4)C(=O)O1)C2` (stereo not shown) [Example 198, 3-[(1-aminocycopropyl)methoxy]-6-[[2-[2-oxo-3-(3-oxo-4H-pyrido[3,2-b][1,4]oxazin-6-yl)-1,3-oxazolidin-5-yl]ethylamino]methyl]-6,7-dihydro-5H-cyclopenta[c]pyridine-4-carbonitrile] it is > 7.01.
As for `Cc1nc(OCC2(N)CC2)c(C)c2c1CC(CNCCC1CN(c3ccc4c(n3)NC(=O)CO4)C(=O)O1)C2` (stereo not shown) [Example 172, 6-[5-[2-[[3-[(1-aminocyclopropyl)methoxy]-1,4-dimethyl-6,7-dihydro-5H-cyclopenta[c]pyridin-6-yl]methylamino]ethyl]-2-oxo-1,3-oxazolidin-3-yl]-4H-pyrido[3,2-b][1,4]oxazin-3-one], the pIC50 is > 7.01.
Still for that read-out and setting: for `CNC(=O)COc1nc(C)c2c(c1C)CC(CNCCC1CN(c3ccc4c(n3)NC(=O)CO4)C(=O)O1)C2` (stereo not shown) [Example 110, 2-[[1,4-dimethyl-6-[[2-[2-oxo-3-(3-oxo-4H-pyrido[3,2-b][1,4]oxazin-6-yl)-1,3-oxazolidin-5-yl]ethylamino]methyl]-6,7-dihydro-5H-cyclopenta[c]pyridin-3-yl]oxy]-N-methylacetamide] the value was 6.51.
Same read-out and setting: for `Cc1nccc2c1CC(CNCCC1CN(c3ccc4c(n3)NC(=O)CO4)C(=O)O1)C2` (stereo not shown) [Example 88, 6-[5-[2-[(1-methyl-6,7-dihydro-5H-cyclopenta[c]pyridin-6-yl)methylamino]ethyl]-2-oxo-1,3-oxazolidin-3-yl]-4H-pyrido[3,2-b][1,4]oxazin-3-one] the value was 6.77; for `O=C1COc2ccc(N3CC(CCNCC4Cc5ccncc5C4)OC3=O)nc2N1` (stereo not shown) [Example 418, 6-[5-[2-(6,7-Dihydro-5H-cyclopenta[c]pyridin-6-ylmethylamino)ethyl]-2-oxo-1,3-oxazolidin-3-yl]-4H-pyrido[3,2-b][1,4]oxazin-3-one], 6.12.
Regarding `Cc1nccc2c1CC(CNCCC1CN(c3cnc4c(n3)NC(=O)CO4)C(=O)O1)C2` (stereo not shown) [Example 279, 6-[5-[2-[(1-methyl-6,7-dihydro-5H-cyclopenta[c]pyridin-6-yl)methylamino]ethyl]-2-oxo-1,3-oxazolidin-3-yl]-4H-pyrazino [2,3-b][1,4]oxazin-3-one; formic acid], the pIC50 is > 7.01.
Same read-out and setting: the figure for `Cc1c(F)cnc2c1CC(CNCCC1CN(c3ccc4c(n3)NC(=O)CO4)C(=O)O1)C2` (stereo not shown) [Example 300, 6-[5-[2-[(3-fluoro-4-methyl-6,7-dihydro-5H-cyclopenta[b]pyridin-6-yl)methylamino]ethyl]-2-oxo-1,3-oxazolidin-3-yl]-4H-pyrido[3,2-b][1,4]oxazin-3-one] is 6.81; for `Cn1nnnc1COc1cc(C#N)c2c(c1)CC(CNCCC1CN(c3cnc4c(n3)NC(=O)CO4)C(=O)O1)C2` (stereo not shown) [Example 391, 6-[(1-methyltetrazol-5-yl)methoxy]-2-[[2-[2-oxo-3-(3-oxo-4H-pyrazino[2,3-b][1,4]oxazin-6-yl)-1,3-oxazolidin-5-yl]ethylamino]methyl]-2,3-dihydro-1H-indene-4-carbonitrile] it is 6.59; for `Cc1ncc(C#N)c2c1CC(CNCC[C@@H]1CN(c3cnc4c(n3)NC(=O)CO4)C(=O)O1)C2` (stereo partly drawn) [Example 365, 1-methyl-6-[[2-[(5R)-2-oxo-3-(3-oxo-4H-pyrazino[2,3-b][1,4]oxazin-6-yl)-1,3-oxazolidin-5-yl]ethylamino]methyl]-6,7-dihydro-5H-cyclopenta[c]pyridine-4-carbonitrile] it is > 7.01.
On the same count and under the same terms, the figure for `Cc1ncc(F)c2c1CC(CNCCC1(C)CN(c3cnc4c(n3)NC(=O)CO4)C(=O)O1)C2` (stereo not shown) [Example 340, 6-[5-[2-[(4-fluoro-1-methyl-6,7-dihydro-5H-cyclopenta[e]pyridin-6-yl)methylamino]ethyl]-5-methyl-2-oxo-1,3-oxazolidin-3-yl]-4H-pyrazino[2,3-b][1,4]oxazin-3-one] is 6.45.
Same read-out and setting: for `N#Cc1cc(OCC2(N)CC2)cc2c1CC(CNCCC1CN(c3ccc4c(n3)NC(=O)CO4)C(=O)O1)C2` (stereo not shown) [Example 185, 6-[(1-aminocyclopropyl)methoxy]-2-[[2-[2-oxo-3-(3-oxo-4H-pyrido[3,2-b][1,4]oxazin-6-yl)-1,3-oxazolidin-5-yl]ethylamino]methyl]-2,3-dihydro-1H-indene-4-carbonitrile] the value was > 7.01.
Consider `NC(=O)COc1ccc2c(c1F)CC(CNCCC1CN(c3cnc4c(n3)NC(=O)CO4)C(=O)O1)C2` (stereo not shown) [Example 413, 2-[[4-fluoro-2-[[2-[2-oxo-3-(3-oxo-4H-pyrazino[2,3-b][1,4]oxazin-6-yl)-1,3-oxazolidin-5-yl]ethylamino]methyl]-2,3-dihydro-1H-inden-5-yl]oxy]acetamide], for which the pIC50 is > 7.01.
`O=C1COc2ncc(N3CC(CCNCC4Cc5cncc(F)c5C4)OC3=O)nc2N1` (stereo not shown) [Example 287, 6-[5-[2-[(4-fluoro-6,7-dihydro-5H-cyclopenta[c]pyridin-6-yl)methylamino]ethyl]-2-oxo-1,3-oxazolidin-3-yl]-4H-pyrazino[2,3-b][1,4]oxazin-3-one]: the pIC50 was > 7.01.
For the molecule `Cc1c(OCC2CCN2)ncc2c1CC(CNCCC1CN(c3ccc4c(n3)NC(=O)CO4)C(=O)O1)C2` (stereo in doubt) [Example 219, 6-[5-[2-[[4-methyl-3-[[(2R)-azetidin-2-yl]methoxy]-6,7-dihydro-5H-cyclopenta[c]pyridin-6-yl]methylamino]ethyl]-2-oxo-1,3-oxazolidin-3-yl]-4H-pyrido[3,2-b][1,4]oxazin-3-one], the pIC50 is 6.42.
In the case of `Cc1nc(Cl)c2c(c1F)CC(CNCCC1CN(c3cnc4c(n3)NC(=O)CO4)C(=O)O1)C2` (stereo not shown) [Example 431, 6-[5-[2-[(1-chloro-4-fluoro-3-methyl-6,7-dihydro-5H-cyclopenta[o]pyridin-6-yl)methylamino]ethyl]-2-oxo-1,3-oxazolidin-3-yl]-4H-pyrazino[2,3-b][1,4]oxazin-3-one; formic acid], the negative-log IC50 (pIC50) is > 7.01.
Take `Cc1c(OCC2(N)CC2)nc(C#N)c2c1CC(CNCCC1CN(c3ccc4c(n3)NC(=O)CO4)C(=O)O1)C2` (stereo not shown) [Example 213, 3-[(1-aminocyclopropyl)methoxy]-4-methyl-6-[[2-[2-oxo-3-(3-oxo-4H-pyrido[3,2-b][1,4]oxazin-6-yl)-1,3-oxazolidin-5-yl]ethylamino]methyl]-6,7-dihydro-5H-cyclopenta[c]pyridine-1-carbonitrile]: the pIC50 is > 7.01.

The experiment is the same for the next values; noted with them: strain Escherichia coli ATCC 25922; 10-point broth dilution, optical density at 600 nm over 16 h; read-out: Escherichia coli growth inhibition IC50.
On to `NC(=O)COc1cc(F)c2c(c1)CC(CNCC[C@@H]1CN(c3cnc4c(n3)NC(=O)CO4)C(=O)O1)C2` (single isomer, unassigned; isomer b) [Example 382], for which the pIC50 was 6.80.
